{"source": "patent US20030206946A1", "about": "“Methods for therapy of connective tissue disease” (priority 2002, published 2003)", "key": {"[1]": {"system": "TNF-α in the connective tissues of connective tissue disease", "experiment": "TNF-α immunohistochemistry of connective tissues in adjuvant arthritis", "format": "in vivo, Long Evans rats", "conditions": "treated vs vehicle group"}, "[2]": {"system": "synovial fibroblasts from adjuvant arthritis", "experiment": "Proliferation of synovial fibroblasts by 3H-thymidine incorporation", "format": "cell-based, rats", "conditions": "3H-thymidine present during last 24 hours of culture; relative to control culture", "method": "(§1) At day 10, synovial samples were obtained from the established adjuvant arthritis rats. The collected synovial tissues were digested with 5 mg/ml collagenase (sigma) and 1.5 mg/ml DNase (sigma), and were passed through a wire mesh to prepare isolated cells. Cells (0.5×10^6) were placed in 10-cm dishes with 10 ml RPMI 1640 medium (Gibco) supplemented with 10% fetal calf serum, 2 mM L-glutamine, 50 U/ml penicillin and […] streptomycin. Cells were detached with trypsin-EDTA solution and passed for subculture when 90% confluency was reached. The synovial cells used were of passage 5. Proliferating synovial fibroblasts from adjuvant arthritis were treated with phenylbutyrate or trichostatin A, and proliferation was determined by incorporation of ^3H-thymidine, which was present during last 24 hours of culture. 4-phenylbutyrate (Merck) dissolved in sterile water with NaOH and adjusted to pH 7.2, or sodium phenylbutyrate (Triple Crown, U.S.A) dissolved in sterile water or trichostatin A (sigma) dissolved in ethanol were used. […] Hyperacetylated histones were detected by use of the antibody that specifically recognizes the hyperacetylated form of histone H3 (upstate biotechnology)."}, "[3]": {"system": "p16 in the synovium of connective tissue disease", "experiment": "p16 immunohistochemistry of synovium in adjuvant arthritis", "format": "in vivo, Long Evans rats", "conditions": "treated vs vehicle group", "text": "FIGS. 8G-[…] are from lower magnification to higher magnification showing the severe synovial hyperplasia and panus formation in connective tissue disease deteriorating the cartilage and bone of joints (left panel: H&E stain). In contrast, there is no p16 staining in the invasive synovium of the vehicle group when compared to the synovium in the treated group (right panel: immunohistochemistry)."}, "[4]": {"system": "adjuvant arthritis, left hind paw (without CFA)", "experiment": "Adjuvant arthritis (CFA), Delayed Phase, contralateral left hind paw volume", "format": "in vivo, Long Evans rats", "conditions": "for systematic inhibition effect in delayed phase (left paw), in words: summary of Table 2", "method": "(§2) A well-ground suspension of killed Mycobacterium tuberculosis (DIFCO, USA; 0.3 mg in 0.1 ml of light mineral oil; Complete Freund's Adjuvant, CFA) was administered into the subplantar region of the right hind paw immediately after first dosing on first day (denoted day 1). Hind paw volume was measured by Plethsmometer (Cat. No. 7150, UGO BASILE, Italy) and Water cell (25 mm diameter, Cat. No. 7157, UGO BASILE, Italy) on day 0 (before CFA treated), 1, 5, 10, and 15 after CFA of right paw (with CFA), and day 0, 14, and 18 of left paw (without CFA); rats were weighed just before first dose and 1 hour after final dose. Right hind paw volume (Acute Phase) was measured 4 hours after CFA treated (denoted as day 1) and day 5, day 10 and day 15 after CFA. The contralateral left hind paw volume (Delayed Phase) was measured at day 14 and day 18. The inflammatory activity in this model was denoted by values calculated during the Acute Phase as well as the Delayed Phase.\n(§3) The animal model for connective tissue disease was established according to the report by Winter C A, et al., Arthritis Rheum. 1966, 9:394-404. Groups of 5 Long Evans rats weighing 150±20 g were used. The 10% of phenylbutyrate cream and 1% of trichostatin A ointment at a dose of 200 mg/paw and 10 mg/paw, respectively, were applied topically twice daily for 18 consecutive days. A well-ground suspension of killed Mycobacterium tuberculosis (DIFCO, USA; 0.3 mg in 0.1 ml of light mineral oil; Complete Freund's Adjuvant, CFA) was administered into the subplantar region of the right hind paw immediately after first dosing on first day (denoted day 1). Hind paw volume was measured by Plethsmometer (Cat. No. 7150, UGO BASILE, Italy) and Water cell (25 mm diameter, Cat. No. 7157, UGO BASILE, Italy) on day 0 (before CFA treated), 1, 5, 10, and 15 after CFA of right paw (with CFA), and day 0, 14, and 18 of left paw (without CFA); rats were weighed just before first dose and 1 hour after final dose. Anti-inflammatory activity in this model was denoted by values calculated during the Acute Phase (the right hind paw volume) as well as the Delayed Phase (the contralateral left hind paw volume). For CFA-injected vehicle control rats, animals were also weighed on day 0 and day 18; CFA-injected vehicle control animals generally gain between 20 to 40 g body weight over this time period. A 30% or more reduction in paw volume relative to vehicle treated controls was considered significant."}, "[5]": {"system": "histone deacetylases", "conditions": "background statement; cited from earlier work"}, "[6]": {"system": "p16 and p21 in synovial fibroblasts from adjuvant arthritis", "experiment": "Western blot of p16 and p21 in synovial fibroblasts", "format": "cell-based, rats", "conditions": "phenylbutyrate 2 mM, trichostatin A 200 nM; 12 h"}, "[7]": {"system": "acetylated histone H3 in synovial fibroblasts from adjuvant arthritis", "experiment": "Accumulation of acetylated histones in synovial fibroblasts (western blot, immunofluorescence with anti-acetylated H3 antibody)", "format": "cell-based, rats", "conditions": "phenylbutyrate 2 mM, trichostatin A 200 nM; 6 h for immunofluorescence", "method": "as §1, with “biotechnology). […] The results were expressed as percentage value relative to the control culture (no drug addition). […]” for “biotechnology).”"}, "[8]": {"system": "inflammation of skin, joints and soft tissues in connective tissue disease", "experiment": "Gross views and histology of paw joints, skin and soft tissues in adjuvant arthritis", "format": "in vivo, Long Evans rats", "conditions": "topical 10% phenylbutyrate cream or 1% trichostatin A ointment vs vehicle", "method": "as §3, with “A 30% or more reduction in paw volume relative to vehicle treated controls was considered significant.” left out"}, "[9]": {"system": "adjuvant arthritis, right hind paw (with CFA)", "experiment": "Adjuvant arthritis (CFA), Acute Phase, right hind paw volume", "format": "in vivo, Long Evans rats", "method": "as §2, §3"}, "[10]": {"conditions": "Acute Phase, right hind paw volume, topical twice daily x 18 days or PO x 5, parentheses mark 30% or more"}}}
{"smiles": "CC(/C=C/C(=O)NO)=C\\[C@@H](C)C(=O)c1ccc(N(C)C)cc1", "note": "[trichostatin A]", "values": [{"measurement": "TNF-α staining in connective tissues", "setting": "[1]", "value": "no TNF-α staining in soft tissues"}, {"measurement": "growth inhibition of synovial fibroblasts", "setting": "[2]", "value": "dose- and time- dependent growth inhibition"}, {"measurement": "p16 expression in synovium", "setting": "[3]", "value": "upregulates p16 expression"}, {"measurement": "systematic inhibition effect in delayed phase (left paw), in words", "setting": "[4]", "value": "not significant"}, {"measurement": "concentration range of histone deacetylase inhibition", "setting": "[5]", "value": "submicromolar range"}, {"measurement": "upregulation of p16 and p21, cell cycle inhibitors", "setting": "[6]", "value": "induce upregulation of p16 and p21"}, {"measurement": "accumulation of acetylated histones", "setting": "[7]", "value": "induce an accumulation of acetylated histones"}]}
{"smiles": "O=C(O)CCCc1ccccc1", "note": "[phenylbutyrate, 4-phenylbutyrate]", "values": [{"measurement": "TNF-α staining in connective tissues", "setting": "[1]", "value": "only small amount of TNF-α was stained in the skin"}, {"measurement": "growth inhibition of synovial fibroblasts", "setting": "[2]", "value": "dose- and time- dependent growth inhibition"}, {"measurement": "p16 expression in synovium", "setting": "[3]", "value": "upregulated"}, {"measurement": "systematic inhibition effect in delayed phase (left paw), in words", "setting": "[4]", "value": "not significant"}, {"measurement": "concentration range of histone deacetylase inhibition", "setting": "[5]", "value": "millimolar concentrations"}, {"measurement": "upregulation of p16 and p21, cell cycle inhibitors", "setting": "[6]", "value": "induce upregulation of p16 and p21"}, {"measurement": "suppression of connective tissue disease (swelling, pannus, synovial hyperplasia, lymphocyte infiltration), in words", "setting": "[8]", "value": "pannus formation is blocked"}, {"measurement": "accumulation of acetylated histones", "setting": "[7]", "value": "induce an accumulation of acetylated histones"}]}
{"smiles": "C[C@]12CCC(=O)C=C1CC[C@@H]1[C@@H]2[C@@H](O)C[C@@]2(C)[C@H]1CC[C@]2(O)C(=O)CO", "note": "[Hydrocortisone, hydrocortisone]", "values": [{"measurement": "% Inhibition relative to vehicle treated, Day (5-0)", "setting": "[9]; [10]", "value": "(35) %"}, {"measurement": "% Inhibition relative to vehicle treated, Day (10-0)", "setting": "[9]; [10]", "value": "(39) %"}, {"measurement": "% Inhibition relative to vehicle treated, Day (15-0)", "setting": "[9]; [10]", "value": 23, "unit": "%"}, {"measurement": "% Inhibition relative to vehicle treated, Day (1-0)", "setting": "[9]; Acute Phase, unilateral ankle joint/right hind paw volume, topical twice daily x 18 days or PO x 5, parentheses mark 30% or more (significant)", "value": "(35) %"}, {"measurement": "anti-inflammatory effect in Acute Phase, in words", "setting": "[9]; right hind paw, summary of Table 2", "value": "marked inhibition effect of hydrocortisone is shown on day 1; however, the effect reduces after day 10"}, {"measurement": "% Inhibition relative to vehicle treated, Day (14-0)", "setting": "[4]; Delayed Phase, contralateral ankle joint/left hind paw volume, parentheses mark 30% or more", "value": "(30) %"}, {"measurement": "% Inhibition relative to vehicle treated, Day (18-14)", "setting": "[4]; Delayed Phase, contralateral left hind paw volume", "value": 20, "unit": "%"}, {"measurement": "% Inhibition relative to vehicle treated, Day (18-0)", "setting": "[4]; Delayed Phase, contralateral left hind paw volume, parentheses mark 30% or more", "value": 27, "unit": "%"}, {"measurement": "systematic inhibition effect in delayed phase (left paw), in words", "setting": "[4]", "value": "partially shown"}]}
